Laboratory results taken from patent US10004711B2, “Methods and compositions comprising 10-hydroxy-2-decenoic acid” (DSM IP ASSETS B.V., priority 2014, dated 2018).

Experiments:
older male rats = experiment: Learning acquisition, Barnes maze task; format: in vivo, rat; conditions: for Escape Latency: average of two trial runs
Procedure: The dose-response characteristics of 10-Hydroxy-2-decenoic acid's (QBA's) potential brain health benefits during aging were assessed for cognitive performance in older male rats (16-17 months old; N=10-12 per group). Rats were fed QBA for 4-5 months prior to behavioral assessment. Spatial learning and memory performance was tested using the Barnes circular maze which consists of a 4-ft diameter, gray circular platform raised 90 cm above the floor level with 20 holes, 10 cm in diameter, evenly spaced around the circumference. Animals were trained to locate a black escape tunnel beneath one of the holes in response to aversive light stimuli. The latency to enter the escape box in each of two trials across four trial days was recorded. Shorter latencies across and within trial days is an indication of better cognitive performance.

histone deacetylases = conditions: Spannhoff et al. 2011; cited from earlier work
[1] = Body weight of aged male rats fed QBA (Example 7); format: in vivo, rat
Procedure: Aged male rats were fed 10-Hydroxy-2-decenoic acid (QBA) for approximately 7 months from 11-months to 18-months of age and the weight of rats was recorded.

stem cells = conditions: Hattori et al. 2009; cited from earlier work

SMILES: O=C(O)C=CCCCCCCCO [QBA, 10-Hydroxy-2-decenoic acid]
- Escape Latency (older male rats; QBA 0.4 mg/kg/day, trial day 1): 98.8 s
- Escape Latency (older male rats; QBA 0.4 mg/kg/day, trial day 2): 63.4 s
- Escape Latency (older male rats; QBA 0.4 mg/kg/day, trial day 3): 63.4 s
- Escape Latency (older male rats; QBA 0.4 mg/kg/day, trial day 4): 24.7 s
- Escape Latency (older male rats; QBA 4 mg/kg/day, trial day 1): 106.7 s
- Escape Latency (older male rats; QBA 4 mg/kg/day, trial day 2): 43.4 s
- Escape Latency (older male rats; QBA 4 mg/kg/day, trial day 3): 43.4 s
- Escape Latency (older male rats; QBA 4 mg/kg/day, trial day 4): 23.6 s
- Escape Latency (older male rats; QBA 12 mg/kg/day, trial day 1): 79.3 s
- Escape Latency (older male rats; QBA 12 mg/kg/day, trial day 2): 30.7 s
- Escape Latency (older male rats; QBA 12 mg/kg/day, trial day 3): 30.7 s
- Escape Latency (older male rats; QBA 12 mg/kg/day, trial day 4): 24.3 s
- Escape Latency (older male rats; QBA 24 mg/kg/day, trial day 1): 109.8 s
- Escape Latency (older male rats; QBA 24 mg/kg/day, trial day 2): 48.4 s
- Escape Latency (older male rats; QBA 24 mg/kg/day, trial day 3): 48.4 s
- Escape Latency (older male rats; QBA 24 mg/kg/day, trial day 4): 34.3 s
- speed of learning acquisition (Barnes maze task) (older male rats; male rats aged 16-17 months): increased the speed of learning acquisition
- histone deacetylase inhibition (histone deacetylases): inhibits histone deacetylases
- Avg Wt ([1]; QBA 0.4 mg/kg/day, study day 0): 509.6 g
- Avg Wt ([1]; QBA 0.4 mg/kg/day, study day 7): 516.1 g
- Avg Wt ([1]; QBA 0.4 mg/kg/day, study day 21): 524.4 g
- Avg Wt ([1]; QBA 0.4 mg/kg/day, study day 29): 508.6 g
- Avg Wt ([1]; QBA 0.4 mg/kg/day, study day 36): 523.1 g
- Avg Wt ([1]; QBA 0.4 mg/kg/day, study day 50): 554.6 g
- Avg Wt ([1]; QBA 0.4 mg/kg/day, study day 57): 559.5 g
- Avg Wt ([1]; QBA 0.4 mg/kg/day, study day 64): 566.7 g
- Avg Wt ([1]; QBA 0.4 mg/kg/day, study day 71): 568.6 g
- Avg Wt ([1]; QBA 0.4 mg/kg/day, study day 78): 570.3 g
- Avg Wt ([1]; QBA 0.4 mg/kg/day, study day 85): 577.3 g
- Avg Wt ([1]; QBA 0.4 mg/kg/day, study day 92): 581.3 g
- Avg Wt ([1]; QBA 0.4 mg/kg/day, study day 99): 583.8 g
- Avg Wt ([1]; QBA 0.4 mg/kg/day, study day 106): 592.7 g
- Avg Wt ([1]; QBA 0.4 mg/kg/day, study day 113): 593.2 g
- Avg Wt ([1]; QBA 0.4 mg/kg/day, study day 120): 596.8 g
- Avg Wt ([1]; QBA 0.4 mg/kg/day, study day 127): 590.7 g
- Avg Wt ([1]; QBA 0.4 mg/kg/day, study day 141): 589.8 g
- Avg Wt ([1]; QBA 0.4 mg/kg/day, study day 148): 578.0 g
- Avg Wt ([1]; QBA 0.4 mg/kg/day, study day 155): 585.4 g
- Avg Wt ([1]; QBA 0.4 mg/kg/day, study day 162): 593.6 g
- Avg Wt ([1]; QBA 0.4 mg/kg/day, study day 169): 601.7 g
- Avg Wt ([1]; QBA 0.4 mg/kg/day, study day 176): 573.6 g
- Avg Wt ([1]; QBA 0.4 mg/kg/day, study day 182): 588.7 g
- Avg Wt ([1]; QBA 0.4 mg/kg/day, study day 190): 584.1 g
- Avg Wt ([1]; QBA 0.4 mg/kg/day, study day 197): 582.6 g
- Avg Wt ([1]; QBA 0.4 mg/kg/day, study day 204): 580.1 g
- Avg Wt ([1]; QBA 0.4 mg/kg/day, study day 211): 575.8 g
- Avg Wt ([1]; QBA 0.4 mg/kg/day, study day 217): 582.6 g
- Avg Wt ([1]; QBA 4 mg/kg/day, study day 0): 509.8 g
- Avg Wt ([1]; QBA 4 mg/kg/day, study day 7): 518.9 g
- Avg Wt ([1]; QBA 4 mg/kg/day, study day 21): 527.4 g
- Avg Wt ([1]; QBA 4 mg/kg/day, study day 29): 511.6 g
- Avg Wt ([1]; QBA 4 mg/kg/day, study day 36): 526.8 g
- Avg Wt ([1]; QBA 4 mg/kg/day, study day 50): 567.3 g
- Avg Wt ([1]; QBA 4 mg/kg/day, study day 57): 571.0 g
- Avg Wt ([1]; QBA 4 mg/kg/day, study day 64): 576.4 g
- Avg Wt ([1]; QBA 4 mg/kg/day, study day 71): 576.2 g
- Avg Wt ([1]; QBA 4 mg/kg/day, study day 78): 584.8 g
- Avg Wt ([1]; QBA 4 mg/kg/day, study day 85): 587.5 g
- Avg Wt ([1]; QBA 4 mg/kg/day, study day 92): 584.3 g
- Avg Wt ([1]; QBA 4 mg/kg/day, study day 99): 595.4 g
- Avg Wt ([1]; QBA 4 mg/kg/day, study day 106): 592.5 g
- Avg Wt ([1]; QBA 4 mg/kg/day, study day 113): 594.7 g
- Avg Wt ([1]; QBA 4 mg/kg/day, study day 120): 592.2 g
- Avg Wt ([1]; QBA 4 mg/kg/day, study day 127): 592.4 g
- Avg Wt ([1]; QBA 4 mg/kg/day, study day 141): 593.1 g
- Avg Wt ([1]; QBA 4 mg/kg/day, study day 148): 588.0 g
- Avg Wt ([1]; QBA 4 mg/kg/day, study day 155): 587.8 g
- Avg Wt ([1]; QBA 4 mg/kg/day, study day 162): 589.5 g
- Avg Wt ([1]; QBA 4 mg/kg/day, study day 169): 594.0 g
- Avg Wt ([1]; QBA 4 mg/kg/day, study day 176): 601.7 g
- Avg Wt ([1]; QBA 4 mg/kg/day, study day 182): 588.0 g
- Avg Wt ([1]; QBA 4 mg/kg/day, study day 190): 597.8 g
- Avg Wt ([1]; QBA 4 mg/kg/day, study day 197): 597.7 g
- Avg Wt ([1]; QBA 4 mg/kg/day, study day 204): 601.8 g
- Avg Wt ([1]; QBA 4 mg/kg/day, study day 211): 596.6 g
- Avg Wt ([1]; QBA 4 mg/kg/day, study day 217): 595.9 g
- Avg Wt ([1]; QBA 12 mg/kg/day, study day 0): 508.7 g
- Avg Wt ([1]; QBA 12 mg/kg/day, study day 7): 508.8 g
- Avg Wt ([1]; QBA 12 mg/kg/day, study day 21): 508.0 g
- Avg Wt ([1]; QBA 12 mg/kg/day, study day 29): 490.2 g
- Avg Wt ([1]; QBA 12 mg/kg/day, study day 36): 511.7 g
- Avg Wt ([1]; QBA 12 mg/kg/day, study day 50): 554.3 g
- Avg Wt ([1]; QBA 12 mg/kg/day, study day 57): 551.4 g
- Avg Wt ([1]; QBA 12 mg/kg/day, study day 64): 567.6 g
- Avg Wt ([1]; QBA 12 mg/kg/day, study day 71): 574.1 g
- Avg Wt ([1]; QBA 12 mg/kg/day, study day 78): 573.1 g
- Avg Wt ([1]; QBA 12 mg/kg/day, study day 85): 574.6 g
- Avg Wt ([1]; QBA 12 mg/kg/day, study day 92): 581.2 g
- Avg Wt ([1]; QBA 12 mg/kg/day, study day 99): 584.5 g
- Avg Wt ([1]; QBA 12 mg/kg/day, study day 106): 591.2 g
- Avg Wt ([1]; QBA 12 mg/kg/day, study day 113): 591.2 g
- Avg Wt ([1]; QBA 12 mg/kg/day, study day 120): 586.1 g
- Avg Wt ([1]; QBA 12 mg/kg/day, study day 127): 593.3 g
- Avg Wt ([1]; QBA 12 mg/kg/day, study day 141): 595.8 g
- Avg Wt ([1]; QBA 12 mg/kg/day, study day 148): 592.9 g
- Avg Wt ([1]; QBA 12 mg/kg/day, study day 155): 591.1 g
- Avg Wt ([1]; QBA 12 mg/kg/day, study day 162): 580.5 g
- Avg Wt ([1]; QBA 12 mg/kg/day, study day 169): 588.2 g
- Avg Wt ([1]; QBA 12 mg/kg/day, study day 176): 593.0 g
- Avg Wt ([1]; QBA 12 mg/kg/day, study day 182): 590.6 g
- Avg Wt ([1]; QBA 12 mg/kg/day, study day 190): 599.5 g
- Avg Wt ([1]; QBA 12 mg/kg/day, study day 197): 600.8 g
- Avg Wt ([1]; QBA 12 mg/kg/day, study day 204): 595.5 g
- Avg Wt ([1]; QBA 12 mg/kg/day, study day 211): 599.6 g
- Avg Wt ([1]; QBA 12 mg/kg/day, study day 217): 593.7 g
- Avg Wt ([1]; QBA 24 mg/kg/day, study day 0): 516.8 g
- Avg Wt ([1]; QBA 24 mg/kg/day, study day 7): 510.9 g
- Avg Wt ([1]; QBA 24 mg/kg/day, study day 21): 530.8 g
- Avg Wt ([1]; QBA 24 mg/kg/day, study day 29): 512.3 g
- Avg Wt ([1]; QBA 24 mg/kg/day, study day 36): 546.4 g
- Avg Wt ([1]; QBA 24 mg/kg/day, study day 50): 574.6 g
- Avg Wt ([1]; QBA 24 mg/kg/day, study day 57): 586.8 g
- Avg Wt ([1]; QBA 24 mg/kg/day, study day 64): 594.2 g
- Avg Wt ([1]; QBA 24 mg/kg/day, study day 71): 598.5 g
- Avg Wt ([1]; QBA 24 mg/kg/day, study day 78): 600.7 g
- Avg Wt ([1]; QBA 24 mg/kg/day, study day 85): 608.8 g
- Avg Wt ([1]; QBA 24 mg/kg/day, study day 92): 614.9 g
- Avg Wt ([1]; QBA 24 mg/kg/day, study day 99): 618.1 g
- Avg Wt ([1]; QBA 24 mg/kg/day, study day 106): 626.7 g
- Avg Wt ([1]; QBA 24 mg/kg/day, study day 113): 628.4 g
- Avg Wt ([1]; QBA 24 mg/kg/day, study day 120): 628.6 g
- Avg Wt ([1]; QBA 24 mg/kg/day, study day 127): 630.3 g
- Avg Wt ([1]; QBA 24 mg/kg/day, study day 141): 632.0 g
- Avg Wt ([1]; QBA 24 mg/kg/day, study day 148): 635.4 g
- Avg Wt ([1]; QBA 24 mg/kg/day, study day 155): 636.3 g
- Avg Wt ([1]; QBA 24 mg/kg/day, study day 162): 637.3 g
- Avg Wt ([1]; QBA 24 mg/kg/day, study day 169): 628.4 g
- Avg Wt ([1]; QBA 24 mg/kg/day, study day 176): 643.9 g
- Avg Wt ([1]; QBA 24 mg/kg/day, study day 182): 646.0 g
- Avg Wt ([1]; QBA 24 mg/kg/day, study day 190): 649.5 g
- Avg Wt ([1]; QBA 24 mg/kg/day, study day 197): 653.3 g
- Avg Wt ([1]; QBA 24 mg/kg/day, study day 204): 644.4 g
- Avg Wt ([1]; QBA 24 mg/kg/day, study day 211): 647.8 g
- Avg Wt ([1]; QBA 24 mg/kg/day, study day 217): 650.6 g
- body weight versus control, repeated measures ANOVA ([1]; all doses versus 0 mg/kg/day QBA): small but significant increase
- body weight maintenance in aging male rats ([1]; summary of Table 13): helped to maintain healthy body weight
- neurogenesis and gliogenesis from stem cells (stem cells): stimulation of neurogenesis from stem cells while inhibiting gliogenesis
